Key:
Assay in all cases: pIC50, kinobeads binding competition
[1] = target: T1, EPHA3 (UniProt P29320)
T1 sequence (whole entry): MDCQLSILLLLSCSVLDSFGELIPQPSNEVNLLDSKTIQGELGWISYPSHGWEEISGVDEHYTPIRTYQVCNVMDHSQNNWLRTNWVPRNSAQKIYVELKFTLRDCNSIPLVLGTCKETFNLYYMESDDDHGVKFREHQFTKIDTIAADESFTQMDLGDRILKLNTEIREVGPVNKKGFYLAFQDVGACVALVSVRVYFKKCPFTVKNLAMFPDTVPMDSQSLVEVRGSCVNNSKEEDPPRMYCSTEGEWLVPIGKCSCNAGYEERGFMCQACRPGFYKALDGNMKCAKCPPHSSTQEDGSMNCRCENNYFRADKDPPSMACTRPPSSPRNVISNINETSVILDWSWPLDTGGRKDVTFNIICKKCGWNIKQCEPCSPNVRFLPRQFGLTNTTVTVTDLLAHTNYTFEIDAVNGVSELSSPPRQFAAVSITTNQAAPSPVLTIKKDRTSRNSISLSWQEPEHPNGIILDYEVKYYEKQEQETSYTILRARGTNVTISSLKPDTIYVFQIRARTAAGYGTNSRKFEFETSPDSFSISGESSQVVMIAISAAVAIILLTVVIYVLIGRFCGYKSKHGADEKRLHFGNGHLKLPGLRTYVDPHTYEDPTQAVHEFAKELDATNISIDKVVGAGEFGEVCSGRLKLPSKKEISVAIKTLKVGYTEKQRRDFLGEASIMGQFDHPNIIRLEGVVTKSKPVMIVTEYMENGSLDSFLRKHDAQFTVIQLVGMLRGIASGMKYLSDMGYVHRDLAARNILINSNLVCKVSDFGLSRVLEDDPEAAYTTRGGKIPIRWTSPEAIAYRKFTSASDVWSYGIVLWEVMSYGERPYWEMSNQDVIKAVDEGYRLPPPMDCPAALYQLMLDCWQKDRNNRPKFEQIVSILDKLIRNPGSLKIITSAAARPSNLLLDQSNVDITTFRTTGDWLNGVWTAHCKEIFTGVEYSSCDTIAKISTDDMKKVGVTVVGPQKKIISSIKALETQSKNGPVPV
Summary of the method: (§1)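 Either living Jurkat cells (60 min at 37 °C, then lysis) or lysates (60 min at 4 °C) were treated with nine compound concentrations from a top of 30 μM, in 1:4 steps for cells and 1:5 steps for lysates. The lysates were from Jurkat cells or a 1:1:1:1 mix of HEK293, K-562, HepG2 and placenta. Kinobeads-bound proteins were digested and quantified by TMT10 LC-MS/MS. pIC50 was calculated by logistic dose-response fitting (R drc package) of fold changes relative to vehicle, in biological duplicates.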

[2] = target: T2, UniProt P46734
T2 sequence (whole entry): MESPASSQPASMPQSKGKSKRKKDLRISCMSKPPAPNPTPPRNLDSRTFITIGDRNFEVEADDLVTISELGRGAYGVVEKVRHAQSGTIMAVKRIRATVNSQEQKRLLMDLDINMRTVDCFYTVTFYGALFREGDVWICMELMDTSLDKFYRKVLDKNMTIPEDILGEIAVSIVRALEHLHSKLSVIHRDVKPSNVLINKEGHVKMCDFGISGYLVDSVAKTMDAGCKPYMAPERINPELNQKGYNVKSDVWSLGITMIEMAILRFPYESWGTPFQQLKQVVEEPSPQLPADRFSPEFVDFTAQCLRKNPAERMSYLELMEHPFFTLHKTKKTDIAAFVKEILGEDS
Summary of the method: as §1

[3] = target: T3, UniProt P45985
T3 sequence (whole entry): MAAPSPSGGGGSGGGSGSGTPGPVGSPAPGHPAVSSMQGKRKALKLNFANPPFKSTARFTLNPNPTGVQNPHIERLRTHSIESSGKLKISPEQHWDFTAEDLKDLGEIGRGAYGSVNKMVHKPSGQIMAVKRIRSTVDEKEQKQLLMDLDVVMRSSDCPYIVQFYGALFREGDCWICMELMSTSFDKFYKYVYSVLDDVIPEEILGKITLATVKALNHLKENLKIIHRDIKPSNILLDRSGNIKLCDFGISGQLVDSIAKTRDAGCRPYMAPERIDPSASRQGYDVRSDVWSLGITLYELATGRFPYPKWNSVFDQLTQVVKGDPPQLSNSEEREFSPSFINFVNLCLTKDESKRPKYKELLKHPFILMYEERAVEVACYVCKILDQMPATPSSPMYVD
Summary of the method: as §1

[4] = target: PRKCB (UniProt P05771)
Summary of the method: as §1

[5] = target: T4, UniProt O14757
T4 sequence (whole entry): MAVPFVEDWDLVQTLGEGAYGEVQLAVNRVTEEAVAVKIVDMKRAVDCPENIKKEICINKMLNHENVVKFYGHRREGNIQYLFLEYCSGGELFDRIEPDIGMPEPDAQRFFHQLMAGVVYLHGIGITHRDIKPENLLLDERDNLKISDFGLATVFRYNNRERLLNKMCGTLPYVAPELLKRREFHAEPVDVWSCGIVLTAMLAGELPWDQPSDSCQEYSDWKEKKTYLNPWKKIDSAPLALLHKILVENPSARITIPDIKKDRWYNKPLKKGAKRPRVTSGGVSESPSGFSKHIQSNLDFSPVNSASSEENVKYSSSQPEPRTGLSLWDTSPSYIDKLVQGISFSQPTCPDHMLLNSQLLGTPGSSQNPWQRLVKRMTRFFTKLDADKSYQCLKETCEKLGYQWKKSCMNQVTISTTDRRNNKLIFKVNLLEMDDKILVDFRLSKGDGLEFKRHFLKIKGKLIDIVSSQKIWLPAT
Summary of the method: as §1

[6] = target: PRKCQ (UniProt Q04759)
Summary of the method: as §1

[7] = target: ACVR2A (UniProt P27037); conditions: cell material: Lysate mix
Summary of the method: as §1

Measured: pIC50

Sequence of PRKCQ (Q04759 whole entry, looked up): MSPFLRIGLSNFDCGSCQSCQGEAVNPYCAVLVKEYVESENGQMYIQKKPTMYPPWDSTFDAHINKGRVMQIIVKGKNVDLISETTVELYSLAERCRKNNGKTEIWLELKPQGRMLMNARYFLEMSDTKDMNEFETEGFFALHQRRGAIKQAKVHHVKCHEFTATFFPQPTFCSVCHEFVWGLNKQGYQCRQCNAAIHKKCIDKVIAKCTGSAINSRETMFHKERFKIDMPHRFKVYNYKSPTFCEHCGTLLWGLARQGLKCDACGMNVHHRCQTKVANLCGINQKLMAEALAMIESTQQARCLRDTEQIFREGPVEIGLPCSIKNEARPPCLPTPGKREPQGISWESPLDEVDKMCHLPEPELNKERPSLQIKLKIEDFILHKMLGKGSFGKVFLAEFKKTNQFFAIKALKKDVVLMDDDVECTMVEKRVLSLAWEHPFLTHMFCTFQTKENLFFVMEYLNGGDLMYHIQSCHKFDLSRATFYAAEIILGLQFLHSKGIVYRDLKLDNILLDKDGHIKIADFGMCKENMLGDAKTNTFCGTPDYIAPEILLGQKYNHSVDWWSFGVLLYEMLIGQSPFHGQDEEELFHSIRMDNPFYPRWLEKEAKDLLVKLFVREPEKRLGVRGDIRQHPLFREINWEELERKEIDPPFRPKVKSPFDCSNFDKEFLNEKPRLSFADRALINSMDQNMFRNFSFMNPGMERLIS
Sequence of PRKCB (P05771 whole entry, looked up): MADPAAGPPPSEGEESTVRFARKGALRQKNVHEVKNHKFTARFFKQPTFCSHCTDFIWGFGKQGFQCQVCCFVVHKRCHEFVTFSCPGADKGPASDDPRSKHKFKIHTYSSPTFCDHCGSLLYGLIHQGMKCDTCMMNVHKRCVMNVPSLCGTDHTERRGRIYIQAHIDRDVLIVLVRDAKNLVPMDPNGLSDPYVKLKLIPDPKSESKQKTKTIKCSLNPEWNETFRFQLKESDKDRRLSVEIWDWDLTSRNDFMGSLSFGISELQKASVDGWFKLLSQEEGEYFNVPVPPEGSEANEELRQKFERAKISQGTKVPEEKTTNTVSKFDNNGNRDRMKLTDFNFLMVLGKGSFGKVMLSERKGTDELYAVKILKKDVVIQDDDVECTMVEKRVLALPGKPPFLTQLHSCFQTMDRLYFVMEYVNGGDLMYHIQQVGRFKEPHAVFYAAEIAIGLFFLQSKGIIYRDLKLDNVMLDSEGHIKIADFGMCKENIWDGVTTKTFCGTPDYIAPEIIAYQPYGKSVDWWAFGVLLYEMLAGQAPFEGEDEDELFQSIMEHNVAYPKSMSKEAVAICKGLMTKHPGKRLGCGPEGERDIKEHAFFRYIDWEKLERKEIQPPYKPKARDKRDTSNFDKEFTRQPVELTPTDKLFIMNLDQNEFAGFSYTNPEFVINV
Sequence of ACVR2A (P27037 whole entry): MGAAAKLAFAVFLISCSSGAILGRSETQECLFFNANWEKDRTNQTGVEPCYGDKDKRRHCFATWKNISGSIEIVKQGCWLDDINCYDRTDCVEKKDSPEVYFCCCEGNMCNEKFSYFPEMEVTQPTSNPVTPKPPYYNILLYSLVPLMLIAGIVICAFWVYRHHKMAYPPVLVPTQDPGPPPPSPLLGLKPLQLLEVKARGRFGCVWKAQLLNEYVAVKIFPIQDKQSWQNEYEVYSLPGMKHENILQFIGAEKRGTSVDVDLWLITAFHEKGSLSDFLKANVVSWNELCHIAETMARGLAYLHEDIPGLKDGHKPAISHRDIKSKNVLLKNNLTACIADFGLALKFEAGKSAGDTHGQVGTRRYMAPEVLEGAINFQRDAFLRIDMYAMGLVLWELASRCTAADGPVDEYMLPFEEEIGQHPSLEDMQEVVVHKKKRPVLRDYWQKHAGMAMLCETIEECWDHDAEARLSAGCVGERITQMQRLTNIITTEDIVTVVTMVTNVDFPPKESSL

CCNC(=O)c1cc(Nc2cc(C)[nH]n2)nc(N2CCN(Cc3ccc(S(=O)(=O)F)cc3)CC2)n1
< 4.52: [1]; cell material: Lysate mix | [2]; cell material: Lysate mix | [3]; cell material: Lysate mix | [4]; cell material: Lysate mix | [5]; cell material: Lysate mix | [6]; cell material: Lysate mix | [7]

CCNC(=O)c1cc(Nc2cc(C3CC3)[nH]n2)nc(N2CCN(Cc3ccc(S(=O)(=O)F)cc3)CC2)n1
< 4.52: [1]; cell material: Lysate mix | [4]; cell material: Lysate mix | [5]; cell material: Lysate mix | [6]; cell material: Lysate mix | [7]
4.88: [3]; cell material: Lysate mix
4.9: [2]; cell material: Lysate mix

Cc1cc(Nc2cc(C(=O)NCCNC(=O)OC3CC/C=C/CCC3)nc(N3CCN(Cc4ccc(S(=O)(=O)F)cc4)CC3)n2)n[nH]1 (stereo unspecified)
< 4.52: [1]; cell material: Lysate mix | [2]; cell material: Lysate mix | [3]; cell material: Lysate mix | [4]; cell material: Lysate mix | [5]; cell material: Lysate mix | [6]; cell material: Lysate mix | [7]

C#CCNC(=O)c1cc(Nc2cc(C3CC3)[nH]n2)nc(N2CCN(Cc3ccc(S(=O)(=O)F)cc3)CC2)n1
4.87: [2]; cell material: Lysate mix
4.82: [3]; cell material: Lysate mix
5.46: [4]; cell material: Jurkat cells
5.16: [5]; cell material: Jurkat cells
< 4.52: [1]; cell material: Jurkat lysate | [1]; cell material: Lysate mix | [3]; cell material: Jurkat lysate | [4]; cell material: Jurkat lysate | [4]; cell material: Lysate mix | [5]; cell material: Jurkat lysate | [5]; cell material: Lysate mix | [6]; cell material: Jurkat lysate | [6]; cell material: Lysate mix | [7]
5.86: [3]; cell material: Jurkat cells
5.54: [2]; cell material: Jurkat cells
5.42: [6]; cell material: Jurkat cells

C#CCNC(=O)c1cc(Nc2cc(C)[nH]n2)nc(N2CCN(Cc3ccc(S(=O)(=O)F)cc3)CC2)n1
< 4.52: [1]; cell material: Lysate mix | [2]; cell material: Lysate mix | [3]; cell material: Lysate mix | [4]; cell material: Lysate mix | [5]; cell material: Lysate mix | [6]; cell material: Lysate mix | [7]

O=C(NCCNC(=O)c1cc(Nc2cc(C3CC3)[nH]n2)nc(N2CCN(Cc3ccc(S(=O)(=O)F)cc3)CC2)n1)OC1CC/C=C/CCC1 (stereo unspecified)
< 4.52: [1]; cell material: Jurkat cells | [1]; cell material: Jurkat lysate | [1]; cell material: Lysate mix | [2]; cell material: Jurkat cells | [2]; cell material: Jurkat lysate | [2]; cell material: Lysate mix | [3]; cell material: Jurkat lysate | [3]; cell material: Lysate mix | [4]; cell material: Jurkat lysate | [4]; cell material: Lysate mix | [5]; cell material: Jurkat cells | [5]; cell material: Jurkat lysate | [5]; cell material: Lysate mix | [6]; cell material: Jurkat lysate | [6]; cell material: Lysate mix | [7]

— the supplement of paper PMC12076712
